Experimental findings from PMC11053136 (Nature Communications, 2024) are described below.

SMILES strings stand for the structures. Entries after “also recorded” stand apart in the source; their conditions may differ. Where only a bound is given, the exact number is not on record here.

Data set [1] concerns the target Perfringolysin O (PFO) (Clostridium perfringens, UniProt P0C2E9). Nature of the data set: cell-based.
In data set [2] the target is T1, wild-type PLY (Streptococcus pneumoniae, UniProt Q7ZAK5). The data set can be described thus: cell-based. The data set is classed as cell-based.
The target in data set [3] is T2, PLY (Streptococcus pneumoniae, UniProt Q7ZAK5). The data set can be described thus: cell-based. The class given is cell-based.
For data set [4], the target named is perforin (Homo sapiens, UniProt P14222). The class given is cell-based.
The target in data set [5] is SARS-CoV2 main protease (Severe acute respiratory syndrome coronavirus 2, UniProt P0DTD1). The class given is biochemical.
Data set [6] addresses protein tyrosine phosphatase PTP1B (Homo sapiens, UniProt P18031). The class given is biochemical.
For data set [7], the system named is K562 cells. The settings on record: 6 µM.
The target of data set [8] is T1, wild-type PLY. The data set can be described thus: biochemical. The class given is binding.
The test system of data set [9] is Streptococcus pneumoniae (S.pn.) D39Δcps. The class given is cell-based.
The target of data set [10] is T2, PLY.

T1 sequence (Q7ZAK5 whole entry, looked up): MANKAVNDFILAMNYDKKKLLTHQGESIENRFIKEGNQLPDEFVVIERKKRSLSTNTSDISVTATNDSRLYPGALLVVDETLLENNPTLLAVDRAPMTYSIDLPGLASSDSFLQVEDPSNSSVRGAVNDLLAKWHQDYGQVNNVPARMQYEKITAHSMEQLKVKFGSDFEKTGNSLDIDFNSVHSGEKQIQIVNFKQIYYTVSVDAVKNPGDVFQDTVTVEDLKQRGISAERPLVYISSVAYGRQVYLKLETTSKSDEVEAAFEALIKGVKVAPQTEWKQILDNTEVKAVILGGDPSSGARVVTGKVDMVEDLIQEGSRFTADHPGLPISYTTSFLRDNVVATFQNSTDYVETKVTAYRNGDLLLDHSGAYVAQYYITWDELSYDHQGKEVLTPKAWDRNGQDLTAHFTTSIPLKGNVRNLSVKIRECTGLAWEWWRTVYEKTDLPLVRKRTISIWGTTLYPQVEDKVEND
T2 sequence (Q7ZAK5 whole entry, looked up): as above
Sequence of protein tyrosine phosphatase PTP1B (P18031 whole entry): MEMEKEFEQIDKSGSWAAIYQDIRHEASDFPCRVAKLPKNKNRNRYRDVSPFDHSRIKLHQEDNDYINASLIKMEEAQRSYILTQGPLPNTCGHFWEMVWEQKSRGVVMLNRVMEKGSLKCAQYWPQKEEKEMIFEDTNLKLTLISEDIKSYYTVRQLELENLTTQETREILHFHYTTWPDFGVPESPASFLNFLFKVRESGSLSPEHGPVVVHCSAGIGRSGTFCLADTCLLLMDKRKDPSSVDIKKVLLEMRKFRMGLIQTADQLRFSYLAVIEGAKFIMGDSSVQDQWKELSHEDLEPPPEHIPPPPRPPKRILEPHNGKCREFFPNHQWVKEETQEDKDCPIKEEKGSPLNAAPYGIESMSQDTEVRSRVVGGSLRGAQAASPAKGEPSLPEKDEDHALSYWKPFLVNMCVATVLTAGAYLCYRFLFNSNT
Sequence of perforin (P14222 22-555): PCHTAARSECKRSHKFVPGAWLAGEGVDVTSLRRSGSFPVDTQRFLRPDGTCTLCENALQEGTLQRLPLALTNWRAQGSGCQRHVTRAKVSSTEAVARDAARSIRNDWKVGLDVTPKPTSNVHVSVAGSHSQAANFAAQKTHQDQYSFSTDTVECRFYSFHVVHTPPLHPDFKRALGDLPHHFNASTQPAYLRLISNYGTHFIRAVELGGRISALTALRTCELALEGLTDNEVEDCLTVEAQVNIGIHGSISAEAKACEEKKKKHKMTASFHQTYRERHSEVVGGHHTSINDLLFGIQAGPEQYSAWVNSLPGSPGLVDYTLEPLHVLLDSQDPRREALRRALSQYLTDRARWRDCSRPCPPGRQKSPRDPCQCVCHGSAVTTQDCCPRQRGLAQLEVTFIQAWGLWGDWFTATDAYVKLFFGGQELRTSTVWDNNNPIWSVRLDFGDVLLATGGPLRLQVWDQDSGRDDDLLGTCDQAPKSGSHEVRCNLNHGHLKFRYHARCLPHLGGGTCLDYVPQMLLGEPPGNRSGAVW
Sequence of Perfringolysin O (PFO) (P0C2E9 29-500 limits assumed): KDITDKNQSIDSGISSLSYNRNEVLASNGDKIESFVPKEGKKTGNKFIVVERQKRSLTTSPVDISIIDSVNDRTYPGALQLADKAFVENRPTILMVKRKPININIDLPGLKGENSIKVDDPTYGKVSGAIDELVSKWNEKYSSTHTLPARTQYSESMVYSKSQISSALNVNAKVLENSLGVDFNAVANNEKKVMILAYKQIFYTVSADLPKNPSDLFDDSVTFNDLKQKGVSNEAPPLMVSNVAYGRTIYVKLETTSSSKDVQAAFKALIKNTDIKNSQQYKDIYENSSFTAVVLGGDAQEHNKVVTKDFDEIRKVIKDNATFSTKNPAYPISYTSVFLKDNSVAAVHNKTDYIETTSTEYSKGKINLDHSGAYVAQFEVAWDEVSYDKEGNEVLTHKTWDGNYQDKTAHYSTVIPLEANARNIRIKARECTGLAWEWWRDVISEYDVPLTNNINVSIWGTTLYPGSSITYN

For `COc1ccc(C=C2C(=O)NC(=O)NC2=O)cc1COc1ccc(F)cc1F` [PB-1], the half-maximal inhibitory concentration (IC50) in data set [1] came out at 4.6 µM; in data set [2], 38 ± 6 µM. The “Inhibition of hemoglobin release, virtual hit screen” value in [2] is “actively hindering hemoglobin release at all three concentrations; also recorded: displayed inhibition”. Further, the “Inhibition of PLY-induced cellular damage, LDH assay (qualitative)” value in [3] is “significant concentration-dependent inhibition of PLY”.

Regarding `Cc1cc(C)cc(N2C(=O)CC(=O)NC2=O)c1` [PB-2.3], in [2], the “IC50 (95% CI), inhibition of hemolysis by wild-type PLY” value is reported as “Inactive” and the “PLY inhibition in the hemolysis assay (qualitative)” value is “no inhibitors; also recorded: did not inhibit PLY alone”.

With `O=Cc1ccc(-c2ccc(Cl)cc2Cl)o1` [PB-3.1], the “PLY inhibition in the hemolysis assay (qualitative)” value in data set [2] is reported as “no inhibitors; also recorded: did not inhibit PLY alone”.

As to `Cc1cc(C)cc(N2C(=O)NC(=O)/C(=C\c3ccc(-c4ccc(Cl)cc4Cl)o3)C2=O)c1` [PB-3], in data set [4], the “Inhibition of lysis of K562 cells by NK cells” value was “did not inhibit” and the “reduction of median target cell lysis compared to DMSO control” value turned out to be 15.6%. For the same compound, in [3], the “Inhibition of PLY-induced cellular damage, LDH assay (qualitative)” value is “significant concentration-dependent inhibition of PLY” and the “prevented cellular damage (LDH release)” value is reported as “more than 95%”. Besides, in data set [3] (A549, read-out: inhibition of PLY in cellular experiments at 1 µM), the inhibition at 1 µM is around 20%. For the same compound, the inhibition at 6 µM in data set [3] (A549, read-out: inhibition of PLY in cellular experiments at 6 µM, 6 µM, after 24 h) is above 90%. Also, the “Inhibition of SARS-CoV2 main protease” value in data set [5] is “inactive; also recorded: without detecting inhibition”. Besides, the “Inhibition of PTP1B” value in data set [6] is “inactive; also recorded: without detecting inhibition”. Moreover, in [7], the “Cytotoxicity for K562 cells alone” value is “not cytotoxic”. In data set [8], this compound gave a Kd of 0.256 µM and a residence time of 36.2 min. Further, the dissociation rate constant (koff) in data set [8] (read-out: koff (off-rate)) came out at 0.00046 s⁻¹. The kon in data set [8] (read-out: kon (on-rate)) came to 1800 M⁻¹ s⁻¹. Also, in data set [9], the “Survival of A549 cells infected with D39Δcps” value is on record as “almost entirely survived” and the “duration of activity in the cellular infection assays” value was “about 4 h”. Moreover, in data set [10], the “Effect of inhibitor alone on A549 cells” value was “harmless to cells” and the “Protection of A549 cells from PLY (microscopy)” value is given as “effectively protected cells from PLY-associated cellular damage”.

Broadly, the IC50 is the concentration that gives 50% inhibition. A word on the inhibition: it is how much of the control response was suppressed. By Kd is commonly meant the equilibrium constant for the complex coming apart. Low values mean tighter binding, high ones weaker binding. Broadly, the koff is a measure of how fast the partners let go of each other. Broadly, the kon is a measure of how fast the partners come together.
